Literature values in patent US10399946B2, “Solid forms of an S-Nitrosoglutathione reductase inhibitor” (Alpine Immune Sciences, Inc., priority 2015, dated 2019).

Key:
[1] = described in WO2012/048181, US 62/061,557, 62/093,712, 62/138,792, 62/209,724, WO 2016/057811
[2] = target: S-nitrosoglutathione reductase (GSNOR) (Homo sapiens, UniProt P11766); settings: variety of assays and therapeutic models
S-nitrosoglutathione reductase (GSNOR), sequence (P11766 whole entry): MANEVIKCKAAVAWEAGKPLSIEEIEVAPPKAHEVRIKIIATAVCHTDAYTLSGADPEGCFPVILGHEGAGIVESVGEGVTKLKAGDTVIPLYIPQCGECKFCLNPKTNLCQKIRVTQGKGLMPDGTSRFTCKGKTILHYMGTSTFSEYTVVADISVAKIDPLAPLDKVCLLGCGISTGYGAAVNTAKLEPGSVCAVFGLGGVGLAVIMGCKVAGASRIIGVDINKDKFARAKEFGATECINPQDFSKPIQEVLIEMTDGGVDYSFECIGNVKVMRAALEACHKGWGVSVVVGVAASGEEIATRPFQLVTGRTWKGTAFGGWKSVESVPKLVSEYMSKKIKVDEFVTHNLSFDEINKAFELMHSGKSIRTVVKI

inhibition of S-nitrosoglutathione reductase (GSNOR) [2]: selective and reversible inhibition
Structure (SMILES): O=C(O)c1ccc(-c2ccc3cc(O)ccc3n2)c(Cl)c1 [Compound 1, 3-chloro-4-(6-hydroxyquinolin-2-yl)benzoic acid]
efficacy in asthma, COPD, cystic fibrosis, and IBD models [1]: demonstrates efficacy
